According to US20250163038A1, “CBL-B MODULATORS AND USES THEREOF” (Nimbus Clio, Inc., priority 2021, published 2025):

What was measured:
[1] = biological target: Recombinant human Cbl-b (aa 36-427) (Homo sapiens, UniProt Q13191); assay: Cbl-b Biochemical Assay (TR-FRET); details: read-out: TR-FRET hCbl-b IC50
[2] = system: Jurkat (clone E6-1) cells with NFAT luciferase reporter; assay: Jurkat reporter assay (NFAT Luciferase); type: cell-based; details: Homo sapiens; Jurkat NFAT luciferase reporter cells, anti-CD3 stimulation, 6 hr; read-out: Jurkat NFAT EC50
[3] = biological target: T1, Recombinant human c-Cbl (aa 47-435) (Homo sapiens, UniProt P22681); assay: c-Cbl Biochemical Assay (TR-FRET); details: hc-Cbl Biochemical Assay (TR-FRET); read-out: TR-FRET hcCbl IC50
T1 sequence (P22681 47-435): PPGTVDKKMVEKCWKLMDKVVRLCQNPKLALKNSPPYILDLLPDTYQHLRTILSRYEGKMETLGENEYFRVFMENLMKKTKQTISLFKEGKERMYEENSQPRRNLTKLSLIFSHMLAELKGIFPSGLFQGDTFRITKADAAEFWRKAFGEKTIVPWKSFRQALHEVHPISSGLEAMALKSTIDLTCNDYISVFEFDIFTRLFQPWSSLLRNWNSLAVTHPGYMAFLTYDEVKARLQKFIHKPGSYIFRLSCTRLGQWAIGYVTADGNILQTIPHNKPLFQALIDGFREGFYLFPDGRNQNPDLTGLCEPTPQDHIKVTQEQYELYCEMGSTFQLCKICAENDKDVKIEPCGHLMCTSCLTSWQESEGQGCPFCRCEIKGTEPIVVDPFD

Recombinant human Cbl-b (aa 36-427), sequence (Q13191 36-427): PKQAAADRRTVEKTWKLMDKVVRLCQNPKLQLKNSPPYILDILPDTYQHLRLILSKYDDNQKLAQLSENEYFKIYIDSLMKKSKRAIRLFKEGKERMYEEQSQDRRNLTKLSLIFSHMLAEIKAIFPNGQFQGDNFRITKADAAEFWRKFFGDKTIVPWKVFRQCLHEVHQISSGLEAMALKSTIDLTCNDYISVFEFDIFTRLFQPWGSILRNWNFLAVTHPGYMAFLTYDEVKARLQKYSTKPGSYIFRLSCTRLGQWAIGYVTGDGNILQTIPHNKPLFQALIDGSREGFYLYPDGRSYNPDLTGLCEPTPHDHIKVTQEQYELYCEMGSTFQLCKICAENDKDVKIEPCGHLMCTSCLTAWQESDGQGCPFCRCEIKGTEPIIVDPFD

## Cn1cnnc1-c1cc(F)ccc1-c1cccc(-c2nc3cc(CO)cc(C4CC4)c3o2)c1 [ES-4, (7-Cyclopropyl-2-(4′-fluoro-2′-(4-methyl-4H-1,2,4-triazol-3-yl)-[1,1′-biphenyl]-3-yl)benzo[d]oxazol-5-yl)methanol]
[1]
  IC50: < 0.2 µM
[2]
  EC50: 1 to 10 µM
[3]
  IC50: 0.2 to 1 µM

## Cn1cnnc1-c1cc(F)ccc1-c1cccc(-c2nc3cc(CN[C@@H]4CCC[C@@H]4O)cc(C4CC4)c3o2)c1 [ES-6, (1S,2R)-2-(((7-Cyclopropyl-2-(4′-fluoro-2′-(4-methyl-4H-1,2,4-triazol-3-yl)-[1,1′-biphenyl]-3-yl)benzo[d]oxazol-5-yl)methyl)amino)cyclopentan-1-ol]
[1]
  IC50: < 0.2 µM
[2]
  EC50: < 0.2 µM
[3]
  IC50: < 0.2 µM

## Cn1cnnc1-c1cc(F)ccc1-c1cccc(-c2nc3cc(CN[C@@H]4CCC[C@@H]4O)ccc3s2)c1 [ET-8, (1S,2R)-2-(((2-(4′-Fluoro-2′-(4-methyl-4H-1,2,4-triazol-3-yl)-[1,1′-biphenyl]-3-yl)benzo[d]thiazol-5-yl)methyl)amino)cyclopentan-1-ol]
[1]
  IC50: < 0.2 µM
[2]
  EC50: 0.2 to 1 µM
[3]
  IC50: < 0.2 µM

## Cn1cnnc1-c1cc(F)ccc1-c1cccc(-c2nc3cc(CNC[C@H]4CCCO4)cc(C(F)(F)F)c3o2)c1 [EU-2, (R)-1-(2-(4′-Fluoro-2′-(4-methyl-4H-1,2,4-triazol-3-yl)-[1,1′-biphenyl]-3-yl)-7-(trifluoromethyl)benzo[d]oxazol-5-yl)-N-((tetrahydrofuran-2-yl)methyl)methanamine]
[1]
  IC50: < 0.2 µM
[2]
  EC50: < 0.2 µM
[3]
  IC50: < 0.2 µM

## Cn1cnnc1-c1cc(F)ccc1-c1cccc(-c2nc3cc(CN[C@@H]4CCC[C@@H]4O)cc(C(C)(C)C)c3o2)c1 [EV-9, (1S,2R)-2-(((7-(tert-Butyl)-2-(4′-fluoro-2′-(4-methyl-4H-1,2,4-triazol-3-yl)-[1,1′-biphenyl]-3-yl)benzo[d]oxazol-5-yl)methyl)amino)cyclopentan-1-ol]
[1]
  IC50: < 0.2 µM
[2]
  EC50: < 0.2 µM
[3]
  IC50: < 0.2 µM

## Cn1cnnc1-c1cc(F)ccc1-c1cccc(-c2nc3cc(CNCCC(F)F)cc(C(F)(F)F)c3o2)c1 [EW-2, 3,3-Difluoro-N-((2-(4′-fluoro-2′-(4-methyl-4H-1,2,4-triazol-3-yl)-[1,1′-biphenyl]-3-yl)-7-(trifluoromethyl)benzo[d]oxazol-5-yl)methyl)propan-1-amine]
[1]
  IC50: < 0.2 µM
[2]
  EC50: < 0.2 µM
[3]
  IC50: < 0.2 µM

## Cn1cnnc1-c1cc(F)ccc1-c1cccc(-c2nc3cc(CO)cc(C(F)F)c3o2)c1 [EX-6, (7-(Difluoromethyl)-2-(4′-fluoro-2′-(4-methyl-4H-1,2,4-triazol-3-yl)-[1,1′-biphenyl]-3-yl)benzo[d]oxazol-5-yl)methanol]
[1]
  IC50: 0.2 to 1 µM
[2]
  EC50: 1 to 10 µM
[3]
  IC50: 0.2 to 1 µM

## Cn1cnnc1-c1cc(F)ccc1-c1cccc(-c2nc3cc(CN[C@@H]4CCC[C@@H]4O)cc(C(F)F)c3o2)c1 [EY-2, (1S,2R)-2-(((7-(Difluoromethyl)-2-(4′-fluoro-2′-(4-methyl-4H-1,2,4-triazol-3-yl)-[1,1′-biphenyl]-3-yl)benzo[d]oxazol-5-yl)methyl)amino)cyclopentan-1-ol]
[1]
  IC50: < 0.2 µM
[2]
  EC50: < 0.2 µM
[3]
  IC50: < 0.2 µM

## COCCN(Cc1cc(C(F)(F)F)c2oc(-c3cccc(-c4ccc(F)cc4-c4nncn4C)c3)nc2c1)CC(C)(C)O [EZ-3]
[1]
  IC50: < 0.2 µM
[2]
  EC50: 1 to 10 µM
[3]
  IC50: 0.2 to 1 µM

## Cn1cnnc1-c1ccccc1-c1cccc(-c2nc3cc(CN[C@@H]4CCC[C@H]4O)cc(C(F)(F)F)c3o2)c1 [Example N-1, (1R,2R)-2-(((2-(2′-(4-Methyl-4H-1,2,4-triazol-3-yl)-[1,1′-biphenyl]-3-yl)-7-(trifluoromethyl)benzo[d]oxazol-5-yl)methyl)amino)cyclopentan-1-ol]
[1]
  IC50: < 0.2 µM
[2]
  EC50: 1 to 10 µM
[3]
  IC50: 1 to 10 µM

## Cn1cnnc1-c1ccccc1-c1cccc(-c2nc3cc(CN[C@H]4CCC[C@@H]4O)cc(C(F)(F)F)c3o2)c1 [Example P-6, (1S,2S)-2-(((2-(2′-(4-Methyl-4H-1,2,4-triazol-3-yl)-[1,1′-biphenyl]-3-yl)-7-(trifluoromethyl)benzo[d]oxazol-5-yl)methyl)amino)cyclopentan-1-ol]
[1]
  IC50: < 0.2 µM
[2]
  EC50: 1 to 10 µM
[3]
  IC50: 1 to 10 µM

## C[C@H]1CCCN(Cc2cc(C(F)(F)F)c3oc(-c4cccc(-c5ccccc5-c5nncn5C)c4)nc3c2)C1 [Example Q-3, (S)-2-(2′-(4-Methyl-4H-1,2,4-triazol-3-yl)-[1,1′-biphenyl]-3-yl)-5-((3-methylpiperidin-1-yl)methyl)-7-(trifluoromethyl)benzo[d]oxazole]
[1]
  IC50: 0.2 to 1 µM
[2]
  EC50: 1 to 10 µM
[3]
  IC50: 1 to 10 µM

## Cn1cnnc1-c1ccccc1-c1cccc(-c2nc3cc(CN[C@@H]4CCC[C@@H]4O)cc(C(F)(F)F)c3o2)c1 [Example R-3, (1S,2R)-2-(((2-(2′-(4-Methyl-4H-1,2,4-triazol-3-yl)-[1,1′-biphenyl]-3-yl)-7-(trifluoromethyl)benzo[d]oxazol-5-yl)methyl)amino)cyclopentan-1-ol]
[1]
  IC50: < 0.2 µM
[2]
  EC50: 0.2 to 1 µM
[3]
  IC50: 1 to 10 µM

## Cn1cnnc1-c1cc(F)ccc1-c1cccc(-c2nc3cc(CN[C@@H]4CCC[C@@H]4O)cc(C(F)(F)F)c3o2)c1 [Example T-5, (1S,2R)-2-(((2-(4′-Fluoro-2′-(4-methyl-4H-1,2,4-triazol-3-yl)-[1,1′-biphenyl]-3-yl)-7-(trifluoromethyl)benzo[d]oxazol-5-yl)methyl)amino)cyclopentan-1-ol]
[1]
  IC50: < 0.2 µM
[2]
  EC50: 0.2 to 1 µM
[3]
  IC50: 1 to 10 µM

## C[C@H]1CCCN(Cc2cc(C(F)(F)F)c3oc(-c4cccc(-c5ccc(F)cc5-c5nncn5C)c4)nc3c2)C1 [Example U-1, (S)-2-(4′-Fluoro-2′-(4-methyl-4H-1,2,4-triazol-3-yl)-[1,1′-biphenyl]-3-yl)-5-((3-methylpiperidin-1-yl)methyl)-7-(trifluoromethyl)benzo[d]oxazole]
[1]
  IC50: < 0.2 µM
[2]
  EC50: 0.2 to 1 µM
[3]
  IC50: 1 to 10 µM

## C[C@@H]1CN(Cc2cc(C(F)(F)F)c3oc(-c4cccc(-c5ccc(F)cc5-c5nncn5C)c4)nc3c2)CCO1 [Example V-1, (R)-2-(4′-Fluoro-2′-(4-methyl-4H-1,2,4-triazol-3-yl)-[1,1′-biphenyl]-3-yl)-5-((2-methylmorpholino)methyl)-7-(trifluoromethyl)benzo[d]oxazole]
[1]
  IC50: < 0.2 µM
[2]
  EC50: 1 to 10 µM
[3]
  IC50: 1 to 10 µM

## Cn1cnnc1-c1cc(F)ccc1-c1cccc(-c2nc3cc(CN[C@@H]4CCC[C@H]4O)cc(C(F)(F)F)c3o2)c1 [Example W-2, (1R,2R)-2-(((2-(4′-Fluoro-2′-(4-methyl-4H-1,2,4-triazol-3-yl)-[1,1′-biphenyl]-3-yl)-7-(trifluoromethyl)benzo[d]oxazol-5-yl)methyl)amino)cyclopentan-1-ol]
[1]
  IC50: < 0.2 µM
[2]
  EC50: 0.2 to 1 µM
[3]
  IC50: 1 to 10 µM

## Cn1cnnc1-c1cc(F)ccc1-c1cccc(-c2nc3cc(CO)cc(C(F)(F)F)c3o2)c1 [Example X-2, (2-(4′-Fluoro-2′-(4-methyl-4H-1,2,4-triazol-3-yl)-[1,1′-biphenyl]-3-yl)-7-(trifluoromethyl)benzo[d]oxazol-5-yl)methanol]
[1]
  IC50: < 0.2 µM
[2]
  EC50: 1 to 10 µM
[3]
  IC50: 1 to 10 µM
